Values joined by “and” are separate entries in the source; they are usually repeats but may differ in a detail not shown here. Identical values can stand only once.
Assays:
[1] = system: human NSCLC heterotransplants; experiment: Paclitaxel treatment and tumor response of human NSCLC heterotransplants grown subcutaneously in nude mice; format: in vivo
[2] = system: human NSCLC heterotransplants; experiment: as above; format: in vivo; remark: listed apart in the source
Method: The in vivo sensitivity to paclitaxel was studied in 34 successfully grown heterotransplants. The paclitaxel was intravenously administered to each mouse at a dosage rate of 60 mg/kg every 3 weeks. Treatment was initiated when the tumors reached a size of about 5 mm in diameter and strict standard clinical criteria (>50% tumor shrinkage) were used to define the tumor response. The heterotransplants were morphologically very similar to the original tumors. The response rate to paclitaxel was 21% (95% Cl 9-38%) which is equivalent to that reported in Phase II studies in patients with advanced NSCLC treated with paclitaxel alone. Tumor heterotransplants are thus proposed as relevant models to evaluate new potential anti-tumor agents for treatment of different cancers and to predict clinical response in individual patients. It is noted that the type of tumor utilized for evaluating chemosensitivity to anti-tumor agents comprises a range of cancers including, but not limited to, colon, head and neck, brain, melanoma, sarcoma, breast, ovarian, prostate, kidney and stomach cancers.
The fresh tumor samples were cut into 2-3 mm^3 pieces in sterile saline. Three or four pieces of non-necrotic tissue were injected subcutaneously into the lower back and anterior chest of 6 to 8 week old female Nu/Nu mice using a biomedical stainless steel implant needle and maintained under standardized conventional conditions. Animals transplanted with NSCLC tumors were checked for tumor growth over a 36 week period. Tumor formation measuring at least 5 mm in diameter was considered a positive take. Tumor formation was confirmed histologically in all cases. Temporary growth was defined as tumor formation followed by spontaneous regression before reaching a diameter of 5 mm. All other incidences were considered no growth.
The therapeutic experiments were designed as a standard Phase II clinical study with a target response rate of 20%, the only difference being that the tumor response was assessed as the average of two animals rather than in a single subject as in the case of a human Phase II trial.
The tumor grown after implantation from human to mouse was resected and cut into pieces following the same procedure used for the original tumor sample as previously described above, and transplanted subcutaneously into several animals. Tumors from the first mouse to mouse passage were allowed to grow until reaching 5 mm in diameter, at which time the animals were split into two groups: 1) control group—no treatment; and 2) treated group. The treated group was administered 60 mg/kg paclitaxel intravenously as a bolus in the tail vein. Tumor measurements were performed twice a week and the tumor volume was calculated using the formula, a×b^2/2 (a=longest diameter and b=shortest diameter). Partial tumor response was defined as an average reduction in the tumor volume of at least 50% in the animals of the treated group compared to the tumor volume measured in animals of the control group. Complete tumor response was defined as complete disappearance of the palpable tumor in both animals of the […].

[3] = system: NSCLC; conditions: single agent, cited from earlier work
[4] = First mouse to mouse passage, after second dose (day 21), 16 heterotransplants, number of responses (%)

CC(=O)O[C@H]1C(=O)[C@@]2(C)[C@H]([C@H](OC(=O)c3ccccc3)[C@]3(O)C[C@H](OC(=O)[C@H](O)[C@@H](NC(=O)c4ccccc4)c4ccccc4)C(C)=C1C3(C)C)[C@]1(OC(C)=O)CO[C@@H]1C[C@@H]2O [paclitaxel]
response rate ([1]; 21 heterotransplants, second mouse to mouse passage, 95% CI 11%-52%): 29%
Tumor Response/(%) Partial ([1]; Second passage, 21 heterotransplants tested on both first and second mouse to mouse passages, number of responses (%)): 6 (29%)
non-responders to one dose achieving a partial response after the second dose ([2]; 12 heterotransplants that did not respond with one dose): None
partial responses after one dose ([2]; 16 heterotransplants given two doses, 4/16, 95% CI 7%-52%): 25%
partial responses converted into complete response after two doses ([2]; 16 heterotransplants, second dose on day 21, number out of 4 partial responses): Three
effect of second dose on overall response rate ([2]; 16 heterotransplants, second dose on day 21 versus single dose): did not change the overall response rate
response rate ([2]; 21 heterotransplants, first mouse to mouse passage, 95% CI 8%-47%): 24%
overall response rate ([2]; 34 heterotransplants, first mouse to mouse passage, one single dose 60 mg/kg i.v., 95% CI 9-38%): 21%
Tumor Response/(%) Complete ([2]; Adenocarcinoma, first mouse to mouse passage, 11 heterotransplants, single dose 60 mg/kg i.v.): 0
Tumor Response/(%) Partial ([2]; Adenocarcinoma, first mouse to mouse passage, 11 heterotransplants, single dose 60 mg/kg i.v., number of responses (%)): 1 (9%)
Tumor Response/(%) Complete ([2]; First mouse to mouse passage, after first dose, 16 heterotransplants): 0
Tumor Response/(%) Partial ([2]; First mouse to mouse passage, after first dose, 16 heterotransplants, number of responses (%)): 4 (24%)
Tumor Response/(%) Complete [2, 4]: 3 (18%)
Tumor Response/(%) Partial [2, 4]: 1 (6%)
Tumor Response/(%) Complete ([2]; First passage, 21 heterotransplants tested on both first and second mouse to mouse passages): 0
Tumor Response/(%) Partial ([2]; First passage, 21 heterotransplants tested on both first and second mouse to mouse passages, number of responses (%)): 5 (24%)
Tumor Response/(%) Partial ([2]; Neuroendocrine carcinoma, first mouse to mouse passage, 1 heterotransplant, single dose 60 mg/kg i.v., number of responses): 1
Tumor Response/(%) Complete ([2]; Second passage, 21 heterotransplants tested on both first and second mouse to mouse passages): 0
Tumor Response/(%) Complete ([2]; Squamous carcinoma, first mouse to mouse passage, 20 heterotransplants, single dose 60 mg/kg i.v.): 0
Tumor Response/(%) Partial ([2]; Squamous carcinoma, first mouse to mouse passage, 20 heterotransplants, single dose 60 mg/kg i.v., number of responses (%)): 4 (20%)
Tumor Response/(%) Complete ([2]; TOTAL, first mouse to mouse passage, 34 heterotransplants, single dose 60 mg/kg i.v., number of responses (%)): 0 (0%)
Tumor Response/(%) Partial ([2]; TOTAL, first mouse to mouse passage, 34 heterotransplants, single dose 60 mg/kg i.v., number of responses (%), 60 mg/kg): 7
Tumor Response/(%) Partial ([2]; TOTAL, first mouse to mouse passage, 34 heterotransplants, single dose 60 mg/kg i.v., number of responses (%), listed as Paclitaxel, 60 mg/kg): 7 (21%)
Tumor Response/(%) Partial ([2]; Undifferentiated carcinoma, first mouse to mouse passage, 2 heterotransplants, single dose 60 mg/kg i.v., number of responses): 1
response rate in the individual Phase II studies ([3]; each of four Phase II studies, previously untreated NSCLC patients): 10% and 21% and 24% and 38%
reported overall response rate ([3]; four Phase II studies, total of 160 previously untreated NSCLC patients): 24%
